Data set [1] has as its system PAI-1. Conditions: non-ocular tissues of rats; cited from earlier work.
In data set [2] the test system is intraocular pressure (IOP). Nature of the data set: Ad.TGFβ2-induced ocular hypertension in mice, topical ocular administration. The format is in vivo. Conditions: conscious mice, rebound tonometer. As for the experimental part: FIGS. 12a-12b are graphs showing the effect of topical ocular administration of various concentrations of cilostazol compared to control on Ad.TGFβ2-induced ocular hypertension in mice. Ad.TGFβ2 viral vector was injected on Day 0. Dosing with Cilostazol or vehicle was performed on the indicated days (denoted by horizontal bars). Intraocular pressure (IOP) was monitored in conscious mice using a rebound tonometer.

The next data set concerns retinal ganglion cells. Conditions: post-axotomy; cited from earlier work.
Data set [3] relates to optic nerve head and retina. The conditions noted are these: in vivo; cited from earlier work.
Data set [4] relates to PAI-1. The data set is described as follows: PAI-1 ELISA: effect on TGFβ2-induced total PAI-1 protein in HTM cell supernatants. The format is cell-based, human. Conditions: TGFβ2 5 ng/mL, 24 h. As for the experimental part:
FIGS. 9-11 present graphs showing the effect of cilostazol, 3,4-dehydro cilostazol, and cilostamide on TGFβ2-induced (5 ng/mL; 24 h) total PAI-1 protein in supernatants from human trabecular meshwork (HTM) cell lines. Cilostazol was tested against three different HTM cell lines (GTM, NTM470-05, and GTM191-04).
(§1) Human TM cell culture: Human TM cells were isolated from post-mortem human donor tissue, characterized, and cultured as previously described. Generation and characterization of the transformed (GTM-3) cell line was also as previously described (Pang et al., Preliminary characterization of a transformed cell strain derived from human trabecular meshwork., Curr. Eye Res., Vol. 13:51-63, 1994.)
(§2) PAI-1 ELISA: 24-well plates of TM cell cultures were serum-deprived for 24 h followed by an additional 24 h (or as indicated) incubation with TGFβ2 in a serum-free medium. Aliquots of supernatants from the treated cultures were quantified for secreted PAI-1 content by means of human PAI-1 ELISA kit (American Diagnostica).
(In general: In an ELISA, binding on a coated surface is turned into a signal by an enzyme label.)

Data set [5] deals with human TM cells (GTM-3, GTM730). Nature of the data set: TM cell adhesion to vitronectin substrate (InnoCyte ECM Cell Adhesion Assay). Type of data set: cell-based. Conditions: TGFβ2 5 ng/mL, 2 hr, GTM-3 and GTM730 cells. As for the experimental part:
as §1
TM cell adhesion: TM cell adhesion was determined by means of InnoCyte ECM Cell Adhesion Assay (Calbiochem). TM cells (20,000/well; serum-free medium) were plated onto a vitronectin-coated 96-well plate. Test agents were then added, followed by incubation in a cell culture incubator for the times indicated. Non-adherent cells were then removed by decantation and gentle wash of the wells with PBS. Relative cell attachment was determined by means of fluorescent dye (calcein-AM) uptake.

Data set [6] relates to PAI-1. Nature of the data set: PAI-1 ELISA: TGFβ2 effect on PAI-1 levels in GTM-3 cell supernatants. The format is cell-based, human. The conditions noted are these: GTM-3 cells. As for the experimental part:
PAI-1 mediated effects may contribute to the previously observed TGFβ2-mediated accumulation of extracellular matrix materials in various tissues, including TM tissues. […] TGFβ2-treatment results in both concentration-dependent and time-dependent accumulation of PAI-1 in TM cell supernatants (FIGS. 1 and 2). PAI-1 levels increase gradually in response to TGFβ2, reaching a constant level at approximately 24 h post-treatment.
as §1, §2

The conditions of data set [7]: cited from earlier work.

For `O=C1CCc2cc(OCCCCc3nnnn3C3CCCCC3)ccc2N1` [cilostazol, Cilostazol], in the data set on PAI-1 [1], the “TGFβ2 and PAI-1 protein expression and PAI-1 activity” value is “suppresses”. The “IOP-lowering effect relative to control (Maxidex vehicle)” value in data set [2] (0.3% cilostazol formulation) and in data set [2] (1.0% cilostazol formulation) was “substantial IOP-lowering effects” in each case. The “survival of retinal ganglion cells” value in the data set with retinal ganglion cells is on record as “increase the survival of retinal ganglion cells”. The “blood flow to the optic nerve head and retina” value in data set [3] is recorded as “enhance blood flow”. Further, in the data set on PAI-1 [4] (three HTM cell lines (GTM, NTM470-05, GTM191-04), FIGS. 9a-9c), the “effect on TGFβ2-induced total PAI-1 protein in supernatants” value (shortened to “effect … in supernatants”) was “dose-dependent inhibitory effect”.
On to `CN(C(=O)CCCOc1ccc2[nH]c(=O)ccc2c1)C1CCCCC1` [cilostamide, Cilostamide], for which the “effect … in supernatants” value in the data set with PAI-1 [4] (GTM-3 HTM cells, FIGS. 10-11) is recorded as “dose-dependent inhibitory effect”.
Turning to “TGFβ2: cytokine transforming growth factor β2”, the “effect on TM cell adhesion compared to controls” value in data set [5] is listed as “did not experience measurable loss of adhesion”. Besides, the “time to constant PAI-1 level post-treatment” value in the data set on PAI-1 [6] (TGFβ2 5 ng/mL) is “approximately 24 h”. For the same molecule, in the data set on PAI-1 [6] (concentration- and time-dependent), the “PAI-1 content in trabecular meshwork cell cultures” value was “increases the PAI-1 content”.
`O=c1ccc2cc(OCCCCc3nnnn3C3CCCCC3)ccc2[nH]1` [3,4-dehydro cilostazol, 3,4-dehydro-cilostazol]: the “share of total activity attributed to cilostazol” value in data set [7] (may account for) was at least 50%. The “activity relative to cilostazol” value in data set [7] (reportedly) was 4-7 fold. The “effect … in supernatants” value in the data set on PAI-1 [4] (GTM-3 HTM cells, FIGS. 10-11) is “dose-dependent inhibitory effect”.

(Values after patent US20100158897A1, “PAI-1 MODULATORS FOR THE TREATMENT OF OCULAR DISORDERS” (ALCON RESEARCH, LTD., priority 2006, published 2010).)
